This assay relates to L1210 leukemia ip in BDF1 mice, survival T/C. Description: NCI In Vivo Anticancer Drug Screen. Data for tumor model L1210 Leukemia (intraperitoneal) in B6D2F1 (BDF1) mice. The conditions noted are these: endpoint: mean survival time, higher = longer survival. The procedure, abridged: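 Tumor cells were implanted, animals were treated, and survival was followed. The result divides the treated measurement by the vehicle-control measurement.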

[1] abbreviates: dose: 100.0 mg/kg/injection, schedule: Q01DX009 (ip), vehicle: saline with Tween-80.
[2] abbreviates: dose: 100.0 mg/kg/injection, schedule: Q04DX002 (ip), vehicle: Klucel (hydroxypropylcellulose) (HPC).
[3] abbreviates: dose: 200.0 mg/kg/injection, schedule: Q01DX009 (ip), vehicle: saline with Tween-80.
Setting [4] is: dose: 400.0 mg/kg/injection, schedule: Q01DX009 (ip), vehicle: saline with Tween-80.
[5] abbreviates: dose: 100.0 mg/kg/injection, schedule: Q01DX001 (ip), vehicle: Klucel (hydroxypropylcellulose) (HPC).
Where [6] appears, read: dose: 200.0 mg/kg/injection, schedule: Q01DX001 (ip), vehicle: Klucel (hydroxypropylcellulose) (HPC).
Setting [7] is: dose: 400.0 mg/kg/injection, schedule: Q01DX001 (ip), vehicle: Klucel (hydroxypropylcellulose) (HPC).
Where [8] appears, read: dose: 100.0 mg/kg/injection, schedule: Q04DX003 (ip), vehicle: saline.
Setting [9] is: dose: 200.0 mg/kg/injection, schedule: Q04DX003 (ip), vehicle: saline.
Where [10] appears, read: dose: 400.0 mg/kg/injection, schedule: Q04DX003 (ip), vehicle: saline.

Each structure is given as a SMILES string. Where “and” joins values, the source holds several entries; their conditions need not be identical. Equal values may be shown once. Toxic doses and inconclusive results are not listed.

Consider `CCCCSC(N)=O`, for which the T/C reads like this: under setting [1], 103 % of control; under setting [2], 94 % of control; under setting [3], 105 % of control; (dose: 200.0 mg/kg/injection, schedule: Q04DX002 (ip), vehicle: Klucel (hydroxypropylcellulose) (HPC)) 97 % of control; under setting [4], 119 % of control; (dose: 400.0 mg/kg/injection, schedule: Q04DX002 (ip), vehicle: Klucel (hydroxypropylcellulose) (HPC)) 90 % of control.
As to `CCOC(=O)C(=CN1CCOCC1)C(=O)OCC`, the T/C runs as follows: under setting [1], 100 % of control; (dose: 100.0 mg/kg/injection, schedule: Q04DX003 (ip), vehicle: saline with Tween-80) 120 % of control; under setting [3], 100 % of control; (dose: 200.0 mg/kg/injection, schedule: Q04DX003 (ip), vehicle: saline with Tween-80) 102 % of control; under setting [4], 100 % of control; (dose: 400.0 mg/kg/injection, schedule: Q04DX003 (ip), vehicle: saline with Tween-80) 98 % of control.
With `O=C(c1ccccc1)C1C(c2ccccc2)N1Cc1ccccc1` (stereo not drawn), the T/C is 102 % of control (dose: 50.0 mg/kg/injection, schedule: Q04DX003 (ip), vehicle: Klucel (hydroxypropylcellulose) (HPC)); 87 % of control under setting [5]; 100 % of control (dose: 100.0 mg/kg/injection, schedule: Q01DX009 (ip), vehicle: Klucel (hydroxypropylcellulose) (HPC)); 98 % of control (dose: 100.0 mg/kg/injection, schedule: Q04DX003 (ip), vehicle: Klucel (hydroxypropylcellulose) (HPC)); 88 % of control under setting [6]; 98 % of control (dose: 200.0 mg/kg/injection, schedule: Q04DX003 (ip), vehicle: Klucel (hydroxypropylcellulose) (HPC)). Further, the T/C under setting [7] is 95 % of control.
Regarding `CS(=O)(=O)Nc1ccc(Nc2c3ccccc3nc3cc([N+](=O)[O-])ccc23)cc1`, the T/C by setting is: (dose: 0.02 mg/kg/injection, schedule: Q01DX009 (ip), vehicle: saline) 118 % of control; (dose: 0.1 mg/kg/injection, schedule: Q01DX009 (ip), vehicle: acetone) 119 % of control; (dose: 0.15 mg/kg/injection, schedule: Q01DX009 (ip), vehicle: acetone) 112 % of control; (dose: 0.16 mg/kg/injection, schedule: Q01DX009 (ip), vehicle: saline) 153 % of control; (dose: 0.6 mg/kg/injection, schedule: Q01DX001 (ip), vehicle: acetone) 116 % of control; (dose: 0.82 mg/kg/injection, schedule: Q01DX009 (ip), vehicle: acetone) 151 % of control. In addition, the T/C by setting is: (dose: 1.25 mg/kg/injection, schedule: Q01DX009 (ip), vehicle: saline) 164 % of control; (dose: 1.25 mg/kg/injection, schedule: Q01DX009 (sc), vehicle: Klucel (hydroxypropylcellulose) (HPC)) 113 % of control; (dose: 1.56 mg/kg/injection, schedule: Q04DX003 (ip), vehicle: saline) 107 % of control; (dose: 2.5 mg/kg/injection, schedule: Q01DX009 (ip), vehicle: saline) 156 % of control and 220 % of control; (dose: 2.5 mg/kg/injection, schedule: Q01DX009 (sc), vehicle: Klucel (hydroxypropylcellulose) (HPC)) 118 % of control; (dose: 3.12 mg/kg/injection, schedule: Q04DX003 (ip), vehicle: saline) 107 % of control. Besides, the T/C is 151 % of control (dose: 3.13 mg/kg/injection, schedule: Q01DX001 (ip), vehicle: saline); 184 % of control (dose: 5.0 mg/kg/injection, schedule: Q01DX009 (ip), vehicle: saline); 159 % of control (dose: 6.25 mg/kg/injection, schedule: Q01DX001 (ip), vehicle: saline); 107 % of control (dose: 6.25 mg/kg/injection, schedule: Q04DX003 (ip), vehicle: saline); 195 % of control (dose: 10.0 mg/kg/injection, schedule: Q01DX009 (sc), vehicle: Klucel (hydroxypropylcellulose) (HPC)); 161 % of control (dose: 12.5 mg/kg/injection, schedule: Q01DX001 (ip), vehicle: saline). The T/C was 240 % of control (dose: 25.0 mg/kg/injection, schedule: Q01DX001 (ip), vehicle: saline) and 168 % of control (dose: 100.0 mg/kg/injection, schedule: Q01DX001 (ip), vehicle: saline).
Regarding `N=C(N)N=Nc1c(O)[nH]c2ccccc12`, the T/C (dose: 15.0 mg/kg/injection, schedule: Q01DX Z (ip), vehicle: saline) was 103 % of control; the T/C (dose: 30.0 mg/kg/injection, schedule: Q01DX Z (ip), vehicle: saline) was 100 % of control; the T/C (dose: 37.5 mg/kg/injection, schedule: Q01DX Z (oral), vehicle: carboxymethylcellulose (CMC)) was 102 % of control; the T/C (dose: 60.0 mg/kg/injection, schedule: Q01DX Z (ip), vehicle: saline) is 94 % of control; the T/C (dose: 75.0 mg/kg/injection, schedule: Q01DX Z (oral), vehicle: carboxymethylcellulose (CMC)) is 98 % of control; the T/C (dose: 120.0 mg/kg/injection, schedule: Q01DX Z (ip), vehicle: saline) was 90 % of control. Further, the T/C (dose: 120.0 mg/kg/injection, schedule: Q01DX Z (oral), vehicle: other) was 95 % of control; the T/C (dose: 150.0 mg/kg/injection, schedule: Q01DX Z (oral), vehicle: carboxymethylcellulose (CMC)) was 105 % of control; the T/C (dose: 240.0 mg/kg/injection, schedule: Q01DX Z (oral), vehicle: other) is 98 % of control.
Consider `O=C(COc1ccccc1)Nc1ccccc1C(=O)O`, for which the T/C reads like this: (dose: 100.0 mg/kg/injection, schedule: Q01DX001 (ip), vehicle: gum acacia) 97 % of control; (dose: 200.0 mg/kg/injection, schedule: Q01DX001 (ip), vehicle: gum acacia) 90 % of control; (dose: 400.0 mg/kg/injection, schedule: Q01DX001 (ip), vehicle: gum acacia) 90 % of control.
For `O=C(O)/C(Cl)=C(/Cl)C(Cl)=C(Cl)Cl`, under “dose: 50.0 mg/kg/injection, schedule: Q01DX009 (ip), vehicle: saline with Tween-80”, the T/C was 97 % of control.
As to `Cc1cccc2c1CCC(OC(=O)c1cc([N+](=O)[O-])cc([N+](=O)[O-])c1)C2` (stereo not drawn), the T/C is, setting by setting: under setting [1], 86 % of control; under setting [3], 169 % of control; under setting [4], 95 % of control.
Turning to `O=C(O)c1ccc(=O)[nH]c1`, the T/C was 95 % of control (dose: 100.0 mg/kg/injection, schedule: Q01DX009 (ip), vehicle: saline); 107 % of control under setting [8]; 96 % of control (dose: 200.0 mg/kg/injection, schedule: Q01DX009 (ip), vehicle: saline); 109 % of control under setting [9]; 95 % of control (dose: 400.0 mg/kg/injection, schedule: Q01DX009 (ip), vehicle: saline); 104 % of control under setting [10].
Take `C=CCc1cc(OC)c(OCc2ccccc2)cc1[N+](=O)[O-]`: the T/C is, setting by setting: (dose: 100.0 mg/kg/injection, schedule: Q04DX002 (ip), vehicle: saline with Tween-80) 101 % of control; (dose: 200.0 mg/kg/injection, schedule: Q04DX002 (ip), vehicle: saline with Tween-80) 87 % of control; (dose: 400.0 mg/kg/injection, schedule: Q04DX002 (ip), vehicle: saline with Tween-80) 90 % of control.
In the case of `O=C(O)CCCC1CCC(=O)CC1`, the T/C reads like this: under setting [8], 109 % of control; under setting [9], 96 % of control; under setting [10], 100 % of control.
As for `Cc1nonc1C(=O)NN`, the T/C (dose: 25.0 mg/kg/injection, schedule: Q04DX002 (ip), vehicle: Klucel (hydroxypropylcellulose) (HPC)) is 93 % of control; the T/C (dose: 50.0 mg/kg/injection, schedule: Q04DX002 (ip), vehicle: Klucel (hydroxypropylcellulose) (HPC)) is 110 % of control; the T/C under setting [2] is 93 % of control and 101 % of control.
As for `c1ccc(-c2nc3ccccn3n2)cc1`, the T/C by setting is: under setting [5], 101 % of control; under setting [6], 95 % of control; under setting [7], 103 % of control.

The values above are taken from PubChem BioAssay AID248 (DTP/NCI, 2004).
